Assay results reported in patent US8076485B2, “Methylphenidate derivatives and uses of them” (priority 2005, dated 2011).

System: NFκB
Test: Activated NFκB in VEGF-treated HUVECs (TransAM assay)
Assay type: cell-based, human
Details: Cpd II at 15 μg/ml and 5 μg/ml
Experimental: Passage 5 HUVECs, human source lot number 8750, were grown to confluence in 25 cm^2 flasks in EGM-2 medium. The following additives were added to the flasks (total volume of 5 ml/flask) in EGM-2 medium containing 2% FCS, GA1000 (gentamycin), heparin and ascorbic acid (all from Cambrex): 1 μg/ml of the compound of formula II (Cpd II); 5 μg/ml Cpd II; 15 μg/ml of Cpd II; 15 μg/ml methylphenidate (MP); or 10 μM LY 294002. The flasks were incubated overnight at 37° C., 5% CO2. After this incubation, VEGF was added to give a final concentration 10 ng/ml, and the flasks were incubated for an additional 30 minutes.
Then, the amount of NFκB was determined using a TransAM™ NFκB p65/NFκB p50 Transcription Factor Assay Kit and a Nuclear Extract Kit from Active Motif North America, Carlsbad, Calif., according to the manufacturer's instructions. Briefly, a nuclear extract of the cells was prepared using the Nuclear Extract Kit. Then, the nuclear extract was added to the wells of the 96-well plate of the TransAM™ kit. […] Then, an antibody directed against the NFκB p65 or p50 subunit was added, and the NFκB complex bound to the oligonucleotide was detected. A secondary antibody conjugated to horseradish peroxidase (HRP) was next added to provide a colorimetric readout that was quantified by spectrophotometry (measurement at 450 nm).

Compound: COC(=O)C(c1ccc(-c2ccccc2)cc1)C1CCCCN1 (stereo not shown) [Cpd II]
- amount of activated NFκB: reduced the amount of activated NFκB back to basal levels
